Laboratory results reported in patent EP0558569B1, “MEDICAMENTS CONTAINING SULPHONAMIDES, NOVEL SULPHONAMIDES AND PROCES FOR PRODUCING THEM” (BOEHRINGER MANNHEIM GMBH, priority 1990, dated 1992).

What was measured:
[1] = system: Plasma-LDL; assay: Stabilisation of plasma LDL against Cu(II) oxidation: prolongation of the lag phase of diene formation (A 234); format: biochemical, human; conditions: 3 Moleküle Testsubstanz pro LDL-Partikel; LDL 125 »g Protein/ml, 10 »M CuCl₂, pH 8, 42° C
Method: (§1) e) In-vitro-Wirkung der Verbindungen der Formel I und I' Hemmung der Cholesterinesterbildung in Makrophagen (nach Huber et al. (1990) Free Rad. Res. Comms. 8, 167-173): Humanplasma-LDL wurde durch sequenzielle Ultrazentrifugation bei präselektierten Dichten aus dem Plasma gesunder männlicher Nichtraucher isoliert und für 5 h bei 37° C in F-10 Medium + 1 »M Cu(II) zur Depletion seiner lipophilen Antioxidantien inkubiert. Die Bildung von Cholesterinestern in P 388 D.1 Makrophagen unter Einfluß von konditioniertem human Plasma-LDL wurde nach 18 h Inkubation der Zellen (2 x 10⁶/ml) in F-10 Medium + 1 » M Cu(II) + 50 »g/ml LDL + 5 % FCS nach Extraktion der Neutralfette dünnschichtchromatographisch gemessen. […] Stabilisierung von Plasma-LDL (nach Huber et al. (1990) Free Rad. Res. Comms. 8, 167-173): LDL (125 »g Protein/ml) wurde in 20 mM Tris-Cl pH 8, 150 mM NaCl, 10 »M CuCl₂ mit und ohne Testverbindung (gelöst in Äthanol, Äthanolendkonzentration 0,5 %) bei 42° C oxidiert. Es wurden jeweils 3 Moleküle Testsubstanz pro LDL-Partikel eingesetzt. Die Oxidation wurde kontinuierlich photometrisch bei A 234 durch die Messung der Dienbildung verfolgt. Die sogenannte "lag Phase" ist als dasjenige Zeitintervall definiert, das sich aus dem Schnittpunkt der Tangente der Kurve während der Propagationsreaktion der Lipidperoxidation und er Zeitachse ergibt. […] Hemmung der Sojabohnenlipoxygenase (15-Lipoxygenase) am LDL-Substrat (nach Cathcart et al. (1991) J. Lipid Res. 32, 63-70): LDL (100 »g Protein/ml) wurde in 20 mM Tris-Cl pH 8,3, 150 mM NaCl mit und ohne Testsubstanz (gelöst in Äthanol, Endkonzentration des Äthanol 0,5 %) mit 5000 U/2ml Sojabohnen-Lipoxygenase (Sigma, München) bei 37° C inkubiert: Die Oxidation wurde durch Messung der Diene kontinuierlich bei A 234 verfolgt. Als IC₅₀-Wert wird diejenige Konzentration der Testverbindung angegeben, die zur Halbierung der im Testansatz über die Zeit linearen Dienbildung führt.

[2] = system: P 388 D.1 Makrophagen; assay: Inhibition of cholesterol ester formation in macrophages under conditioned human plasma LDL (after Huber et al. 1990); format: cell-based; conditions: for inhibition at 10 µM / IC50: Mus musculus, P388D1, 18 h; for inhibition at 10 µM: read-out: Hemmung der Cholesterinesterbildung in Macrophagen (P388D.1) 10 »M %; for IC50: read-out: Hemmung der Cholesterinesterbildung in Macrophagen (P388D.1) IC₅₀
Method: as §1

[3] = system: Ratten mit diätetisch induzierter Hypercholesterinämie; assay: Dose-dependent effect on serum cholesterol in rats with diet-induced hypercholesterolaemia; format: in vivo, SD Ratten; conditions: for S-Cholesterin: 4 days on 2 % Cholesterin/0,2 % Cholsäure diet, measured day 5, Mittelwerte +/- SEM, n=6; for % Kontrollen: S-Cholesterin as % of controls (dose 0 = 100)
Description: Die Verbindungen der Formel I bzw. I' sind Antioxidantien-Sulfonamidanaloga, die Hemmstoffe der Cholesterinesterbildung in der Arterienwand zur Behandlung der Arteriosklerose darstellen. a) Die Zytogenese der Atheromatose Hypercholesterinämie und Syndrome von Hypercholesterinämie/Hypertriglyceridämie Syndrome sind Risikofaktoren für die vorzeitige Arteriosklerose. In der Pathogenese der arteriosklerotischen Läsion selbst spielt die oxidative Modifikation von Lipoproteinen in der Arterienwand eine wichtige Rolle. Sie führt zur Freisetzung von chemotaktisch wirksamen Mediatoren und zur Wanderung von makrophagozytären Zellen aus dem Blut in die Arterienwand. In der Gefäßwand nehmen Makrophagen besonders intensiv oxidativ verändertes low-density lipoprotein (LDL) unreguliert auf. Die damit verbundene Erhöhung des Cholesterininfluxes und die Belastung des zellulären Stoffwechsels führt zu einem Anstieg des intrazellulären Cholesterins, einer Steigerung der Reacylierung des Cholesterins und Speicherung der Cholesterinester, die wiederum zur Ausbildung großer cytoplasmatischer Cholesterinesterdepots und zur Degeneration dieser Makrophagen ("Schaumzellen") führen. Die Schaumzellen sind das zelluläre Substrat des Atheroms und verursachen die makroskopisch sichtbaren Fettstreifen, aus denen sich dann die fibrösen Plaqueläsionen bei Fortschreiben der Erkrankung entwickeln. b) Die Grundlagen für eine antiatherosklerotische Therapie bei Fettstoffwechselstörungen Eine an die Kausalzusammenhänge orientierte antiatherosklerotische Therapie fußt idealerweise auf mindestens drei Säulen: 1. einer Senkung pathologisch erhöhter Lipidspiegel im Plasma durch Diät und/oder Pharmaka, 2. einem wirksamen Antioxidantienschutz besonders des stark atherogenen LDL zur Verminderung des oxidativen LDL-Katabolismus im Atherom und 3. einer Hemmung der Cholesterinesterbildung in den Schaumzellen der fettstreifigen Frühläsionen. Einige Senker des Serum-Cholesterins wirken, indem sie den hepatischen Pool des freien Cholesterins kontrahieren und den Katabolismus des atherogenen LDL-Cholesterins erhöhen: Ionenaustauscher interferieren z. B. mit dem enterhepatischen Cholesterinkreislauf, führen zur Depletion der Gallensäuren in den Hepatozyten und stimulieren die LDL-Cholesterinaufnahme aus dem Plasmakompartment durch eine vermehrte hepatische Aufnahme von Cholesterin über LDL und die hepatischen Apo B,E-Rezeptoren (LDL-Rezeptoren). Ähnlich wirken die Cholesterinsynthese-blocker, z. B. Lovastatin. Sie vermindern das hepatische Cholesterin und bedingen ebenfalls eine gesteigerte Aufnahme von LDL-Cholesterin aus dem Plasma über eine Vermehrung der LDL-Rezeptoren. Auch Hemmer der Cholesterinresorption bedingen eine Absenkung des hepatischen Cholesterinpools, indem sie die exogene diätetische Belastung durch Cholesterin reduzieren. Beispiele hierfür sind die sogenannten Acyl CoA: cholesterinacyltransferase (ACAT)-Hemmer, die in den Enterozyten den Cholesterinefflux via Chylomikronen durch die Hemmung der Veresterung freien Cholesterins unterbinden. In der Leber wird durch diese Hemmer der Cholesterinesterbildung zusätzlich das freie Cholesterin erhöht und die endogene hepatische Cholesterinbiosynthese durch Endprodukt-Hemmung indirekt gehemmt. In den Schaumzellen des Atheroms wird durch die Blockade der Cholesterinesterbildung erhöht freies Cholesterin in den "Reverse Cholesterol Transport pathway" der high-density lipoproteins (HDL) eingebracht, daraus entsteht ein zusätzlicher direkter antiatherogener Effekt. Antioxidantien sind Substanzen, die - allgemein gesehen - eine erhebliche Verzögerung der oxidativen Vorgänge bei einem zu schützenden Produkt bewirken. […] Es ist ein sterisch gehindertes Alkylphenol, das im LDL akkumuliert. […] Methode: 220-250 g schwere SD Ratten erhielten eine Standarddiät, die mit 2 % Cholesterin/0,2 % Cholsäure angereichert wurde, über 4 Tage. […]

Compound | Stabilisierung von Plasma LDL: Verlängerung d. "lag-Phase" % [1] [%] | inhibition at 10 µM [2] [%] | IC50 [2] [nM] | further results
CC(C)(C)c1cc(CNS(=O)(=O)c2ccc(Cl)cc2)cc(C(C)(C)C)c1O [Beispiel 2, 4-Chlorbenzolsulfo-(3,5-di-tert.butyl-4-hydroxy)benzylamid] | 44 | 78.7 | 2500 | 
CN(Cc1cc(C(C)(C)C)c(O)c(C(C)(C)C)c1)S(=O)(=O)c1ccc(Cl)cc1 [Beispiel 3, N-Methyl-4-chlorbenzolsulfo-(3,5-di-tert.butyl-4-hydroxy)benzylamid] | 40 | 54.9 |  | 
CC(C)(C)c1cc(CCCNS(=O)(=O)c2ccc(Cl)cc2)cc(C(C)(C)C)c1O [Beispiel 4b] |  | 49.2 |  | 
CC(C)c1cc(C(C)C)c(S(=O)(=O)NCc2cc(C(C)(C)C)c(O)c(C(C)(C)C)c2)c(C(C)C)c1 [Beispiel 5.10, 2,4,6-tris-Isopropyl-benzolsulfo-(3,5-di-tert.butyl-4-hydroxy)benzylamid] | 99 | 60.3 | 7000 | 
CC(C)c1cc(C(C)C)c(S(=O)(=O)NCCc2cc(C(C)(C)C)c(O)c(C(C)(C)C)c2)c(C(C)C)c1 [Beispiel 5.17] | 50 | 78 |  | 
CCCCS(=O)(=O)NCCCc1cc(C(C)(C)C)c(O)c(C(C)(C)C)c1 [Beispiel 5.19] |  | 43.8 |  | 
CC(C)(C)c1cc(CCNS(=O)(=O)c2ccc(F)cc2)cc(C(C)(C)C)c1O [Beispiel 5.28, 2-[4-Fluorbenzolsulfo-(3,5-di-tert.butyl-4-hydroxy)]-phenethylamid] | 25 | 92.6 | 1200 | S-Cholesterin ([3]; 5 mg/kg/d by gavage in 2 ml Pflanzenöl): 187 +/- 23 mg %; S-Cholesterin ([3]; 15 mg/kg/d by gavage in 2 ml Pflanzenöl): 120 +/- 15 mg %; S-Cholesterin ([3]; 50 mg/kg/d by gavage in 2 ml Pflanzenöl): 114 +/- 14 mg %; S-Cholesterin ([3]; 100 mg/kg/d by gavage in 2 ml Pflanzenöl): 84 +/- 8 mg %; % Kontrollen ([3]; 5 mg/kg/d): 75%; % Kontrollen ([3]; 15 mg/kg/d): 48%; % Kontrollen ([3]; 50 mg/kg/d): 46%; % Kontrollen ([3]; 100 mg/kg/d): 33%
CC(Cc1cc(C(C)(C)C)c(O)c(C(C)(C)C)c1)NS(=O)(=O)C(C)C (stereo not drawn) [Beispiel 5.31] | 18 | 33.9 |  | 
CC(C)(Sc1cc(C(C)(C)C)c(O)c(C(C)(C)C)c1)Sc1cc(C(C)(C)C)c(O)c(C(C)(C)C)c1 [Probucol, reference compound] | 10 |  |  | Hemmung der Cholesterbildung ([2]; reference substance at 10 »M, n=7, printed as positive inhibition): 25-42%
